Source: article PMC10357944 (RSC Medicinal Chemistry, 2023)

Columns and labels:
[1] = Mammalian toxicity in vitro, MTT colorimetric method; format: cell-based, Murine; conditions: mouse, NCTC clone 929 fibroblasts, pH 7.2, NCTC clone 929 cells, up to 200 μM
Method: The synthesized compounds were evaluated for their anti-L. (L.) infantum activity on intracellular amastigotes following 96 h treatment, with standard drug miltefosine used as a control. […] Leishmania (L.) infantum (MHOM/BR/1972/LD) amastigotes were obtained by differential centrifugation from golden hamsters (Mesocricetus auratus) spleens with 60–70 days of infection and the number of parasites was determined by the Stauber method.[18] Murine conjunctive fibroblasts NCTC clone 929 (ATCC) were maintained in RPMI-1640 medium supplemented with 10% FBS at pH 7.2 and 37 °C in a humidified incubator with 5% CO2. Peritoneal macrophages were by obtained by washing the peritoneal cavity of BALB/c mice with RPMI-1640 medium supplemented with 10% FBS, pH 7.2 and maintained at 37 °C in a humidified incubator with 5% CO2. NCTC cells (6 × 10^4/well) were added to 96-well plates and maintained at 37 °C in a 5% CO2 humidified incubator for 96 h with compounds serially diluted (1.6 to 200 μM). […] The determination of CC50 and IC50 values was performed by sigmoid dose–response curves using the Graph Pad Prism 5 software. The samples were tested in duplicate and the assays were reproduced at least twice.

[2] = test system: Leishmania (L.) infantum intracellular amastigotes; assay: Anti-L. (L.) infantum activity in vitro, intracellular amastigotes in peritoneal macrophages, infection index; format: cell-based; conditions: L. (L.) infantum intracellular amastigotes in BALB/c peritoneal macrophages, 96 h treatment, NA = inactive
Method: The synthesized compounds were evaluated for their anti-L. (L.) infantum activity on intracellular amastigotes following 96 h treatment, with standard drug miltefosine used as a control. […] Leishmania (L.) infantum (MHOM/BR/1972/LD) amastigotes were obtained by differential centrifugation from golden hamsters (Mesocricetus auratus) spleens with 60–70 days of infection and the number of parasites was determined by the Stauber method.[18] Murine conjunctive fibroblasts NCTC clone 929 (ATCC) were maintained in RPMI-1640 medium supplemented with 10% FBS at pH 7.2 and 37 °C in a humidified incubator with 5% CO2. Peritoneal macrophages were by obtained by washing the peritoneal cavity of BALB/c mice with RPMI-1640 medium supplemented with 10% FBS, pH 7.2 and maintained at 37 °C in a humidified incubator with 5% CO2. Peritoneal macrophages (1 × 10^5/well) were added in 16-well slide chambers (NUNC) and incubated overnight at 37 °C with 5% CO2. Subsequently, the cells were infected with L. (L.) infantum amastigotes (10 : 1 amastigotes/macrophage) for 24 h, treated with compounds serially diluted (6.25 to 50 μM) and incubated for 96 h at 37 °C with 5% CO2. Miltefosine was used as standard drug and untreated cells as a negative control. Slides were fixed with methanol, stained with Giemsa and observed under a light microscope.[19] […] The determination of CC50 and IC50 values was performed by sigmoid dose–response curves using the Graph Pad Prism 5 software. The samples were tested in duplicate and the assays were reproduced at least twice.

T. cruzi trypomastigotes = test system: T. cruzi trypomastigotes; set-up: method as in our previous work; conditions: ref our previous work; cited from earlier work

SMILES: CCCCCCCCCCCCCCCCOP(=O)([O-])OCC[N+](C)(C)C [Milt., miltefosine, reference compound]
- CC50 at 96 h [1]: 120 ± 4.2 µM
- IC50 ([2]; Peritoneal macrophage, 96 h): 6.5 ± 3 µM

SMILES: C=CCc1cc(OC)c(OCc2ccc(OC)cc2)c(Oc2ccc(CN3CCOCC3)cc2OC)c1 [Compound 24]
- CC50 at 96 h [1]: > 200 µM
- IC50 ([2]; Peritoneal macrophage, 96 h): 9.7 ± 2 µM

SMILES: C=CCc1cc(OC)c(O)c(Oc2ccccc2OC)c1 [Compound 15]
- CC50 at 96 h [1]: 31.6 ± 11.3 µM

SMILES: CCCc1ccc(Oc2cc(CN3CCOCC3)cc(OC)c2OCc2ccc(C(F)(F)F)cc2)c(OC)c1 [Compound 29]
- CC50 at 96 h [1]: > 200 µM
- IC50 ([2]; Peritoneal macrophage, 96 h): 13.2 ± 2.1 µM

SMILES: C=CCc1ccc(Oc2cccc(OC)c2OCc2ccc(OC)cc2)c(OC)c1 [Compound 10]
- CC50 at 96 h [1]: > 200 µM

SMILES: C=CCc1ccc(Oc2cc(CC=C)ccc2OCc2ccc(OC)cc2)c(OC)c1 [Compound 38]
- CC50 at 96 h [1]: > 200 µM

SMILES: CCCc1ccc(OCc2ccc(OC)cc2)c(Oc2ccc(CN3CCOCC3)cc2OC)c1 [Compound 35]
- CC50 at 96 h [1]: 33.8 ± 4.9 µM
- IC50 (μM) ± SD [2]: inactive

SMILES: C=CCc1cc(OC)c(OC)c(Oc2ccccc2OC)c1 [Compound 13]
- CC50 at 96 h [1]: > 200 µM

SMILES: C=CCc1ccc(Oc2cccc(OC)c2OC(C)=O)c(OC)c1 [Compound 12]
- CC50 at 96 h [1]: > 200 µM

SMILES: C=CCc1ccc(O)c(Oc2ccc(CC=C)cc2OC)c1 [Compound 39]
- CC50 at 96 h [1]: 129 ± 5.2 µM

SMILES: CCCc1ccc(Oc2cc(CN3CCOCC3)cc(OC)c2OCc2ccc(OC)cc2)c(OC)c1 [Compound 28]
- CC50 at 96 h [1]: > 200 µM
- IC50 ([2]; Peritoneal macrophage, 96 h): 16.4 ± 4.3 µM

SMILES: C=CCc1ccc(Oc2cc(CC=C)cc(OC)c2OCC(=O)N2CCOCC2)c(OC)c1 [Compound 7]
- CC50 at 96 h [1]: 112 ± 8.2 µM

SMILES: C=CCc1ccc(Oc2cc(CC=C)cc(OC)c2OCc2ccc(OC)cc2)c(OC)c1 [Compound 1]
- activity against T. cruzi trypomastigotes (T. cruzi trypomastigotes): 4.0 ± 1.4 µM
- CC50 at 96 h [1]: > 200 µM
- IC50 (μM) ± SD [2]: inactive

SMILES: C=CCc1ccc(Oc2cccc(OC)c2O)c(OC)c1 [Compound 16]
- CC50 at 96 h [1]: > 200 µM

SMILES: C=CCc1ccc(Oc2cc(CC=C)cc(OC)c2OCC(=O)N2CCCC2)c(OC)c1 [Compound 6]
- CC50 at 96 h [1]: 52.9 ± 15.2 µM
- IC50 ([2]; Peritoneal macrophage, 96 h): 20.3 ± 5.9 µM

SMILES: C=CCc1cc(OC)cc(Oc2ccc(CC=C)cc2OC)c1 [Compound 8]
- CC50 at 96 h [1]: > 200 µM

SMILES: CCCc1ccc(Oc2cc(CN3CCOCC3)cc(OC)c2OCc2cc(OC)c(OC)c(OC)c2)c(OC)c1 [Compound 30]
- CC50 at 96 h [1]: > 200 µM
- IC50 ([2]; Peritoneal macrophage, 96 h): 26.3 ± 3.2 µM

SMILES: C=CCc1ccc(Oc2cc(CCC)cc(OC)c2OCc2ccc(OC)cc2)c(OC)c1 [Compound 21]
- CC50 at 96 h [1]: > 200 µM

SMILES: C=CCc1ccc(Oc2cc(CCC)cc(OC)c2O)c(OC)c1 [Compound 18]
- CC50 at 96 h [1]: 14.2 ± 0.1 µM

SMILES: C=CCc1cc(OC)c(OCc2ccc(OC)cc2)c(Oc2ccc(CCC)cc2OC)c1 [Compound 20]
- CC50 at 96 h [1]: > 200 µM

SMILES: CCCc1ccc(Oc2cc(CCC)cc(OC)c2OCc2ccc(OC)cc2)c(OC)c1 [Compound 22]
- CC50 at 96 h [1]: > 200 µM

SMILES: COc1ccc(COc2c(OC)cc(CN3CCOCC3)cc2Oc2ccc(CN3CCOCC3)cc2OC)cc1 [Compound 27]
- CC50 at 96 h [1]: 74.4 ± 5.8 µM
- IC50 ([2]; Peritoneal macrophage, 96 h): 27.8 ± 7.4 µM

SMILES: C=CCc1ccc(Oc2cc(CC=C)cc(OC)c2OCCN2CCCC2)c(OC)c1 [Compound 4]
- CC50 at 96 h [1]: 24.9 ± 2.6 µM
- IC50 ([2]; Peritoneal macrophage, 96 h): 4.1 ± 1.1 µM

SMILES: C=CCc1cc(OC)c(OC)c(Oc2ccc(CCC)cc2OC)c1 [Compound 19]
- CC50 at 96 h [1]: > 200 µM

SMILES: C=CCc1ccc(Oc2cccc(OC)c2OC)c(OC)c1 [Compound 14]
- CC50 at 96 h [1]: > 200 µM

SMILES: CCCc1ccc(Oc2cc(CN3CCOCC3)cc(OC)c2OCc2ccc(OC)cc2)cc1 [Compound 34]
- CC50 at 96 h [1]: > 200 µM
- IC50 ([2]; Peritoneal macrophage, 96 h): 15.3 ± 1.9 µM

SMILES: C=CCc1cc(OC)c(OC(C)=O)c(Oc2ccccc2OC)c1 [Compound 11]
- CC50 at 96 h [1]: > 200 µM
- IC50 ([2]; Peritoneal macrophage, 96 h): 32.7 ± 5 µM

SMILES: C=CCc1ccc(Oc2cc(CC=C)cc(OC)c2O)cc1 [Compound 37]
- CC50 at 96 h [1]: 123 ± 9.4 µM

SMILES: CCCc1ccc(Oc2cc(CN3CCCCC3)cc(OC)c2OCc2ccc(OC)cc2)cc1 [Compound 33]
- CC50 at 96 h [1]: 22.7 ± 0.9 µM
- IC50 ([2]; Peritoneal macrophage, 96 h): ~3 µM

SMILES: CCCc1cc(OC)c(OCc2ccc(OC)cc2)c(Oc2ccc(CN3CCCCC3)cc2OC)c1 [Compound 26]
- CC50 at 96 h [1]: 14.5 ± 0.2 µM
- IC50 [2]: 3.7 ± 0.5 µM
- IC50 ([2]; Peritoneal macrophage, 96 h): ~3 µM

SMILES: CCCc1cc(OC)c(OCc2ccc(OC)cc2)c(Oc2ccc(CN3CCOCC3)cc2OC)c1 [Compound 25]
- CC50 at 96 h [1]: 74.4 ± 4.4 µM
- IC50 ([2]; Peritoneal macrophage, 96 h): 7.7 ± 0.8 µM

SMILES: C=CCc1cc(OC)c(O)c(Oc2ccc(CCC)cc2OC)c1 [Compound 17]
- CC50 at 96 h [1]: 42 ± 3.8 µM

SMILES: C=CCc1ccc(Oc2cc(CC=C)cc(OC)c2OCc2ccc(OC)cc2)cc1 [Compound 36]
- CC50 at 96 h [1]: > 200 µM

SMILES: C=CCc1cc(OC)c(O)c(Oc2ccc(CN3CCCC3)cc2OC)c1 [Compound 32]
- CC50 at 96 h [1]: 43.3 ± 5.3 µM
- IC50 (μM) ± SD [2]: no anti-parasitic activity

SMILES: C=CCc1cc(OC)c(OCc2ccc(OC)cc2)c(Oc2ccccc2OC)c1 [Compound 9]
- CC50 at 96 h [1]: > 200 µM
- IC50 ([2]; Peritoneal macrophage, 96 h): 24.2 ± 18.2 µM

SMILES: C=CCc1ccc(Oc2cc(CC=C)cc(OC)c2OCOC)c(OC)c1 [Compound 2]
- CC50 at 96 h [1]: > 200 µM

SMILES: C=CCc1cc(OC)c(OCc2ccc(OC)cc2)c(Oc2ccc(CN3CCCC3)cc2OC)c1 [Compound 23]
- CC50 at 96 h [1]: 6.2 ± 1.2 µM

SMILES: C=CCc1ccc(Oc2cc(CC=C)cc(OC)c2OCCN2CCOCC2)c(OC)c1 [Compound 5]
- CC50 at 96 h [1]: 63.7 ± 0.2 µM
- IC50 ([2]; Peritoneal macrophage, 96 h): 9.6 ± 3.6 µM

SMILES: C=CCc1cc(OC)c(O)c(Oc2ccc(CN3CCOCC3)cc2OC)c1 [Compound 31]
- CC50 at 96 h [1]: 51.4 ± 4.7 µM
- IC50 (μM) ± SD [2]: no anti-parasitic activity
